Laboratory results: patent US12503475B2 (Centessa Pharmaceuticals (UK) Limited, priority 2020, dated 2025)

Target: T1, human orexin type 2 receptor (hOX2R) (Homo sapiens, UniProt O43614)
T1 construct: expressed in transfected cells
T1 sequence (O43614 1-444): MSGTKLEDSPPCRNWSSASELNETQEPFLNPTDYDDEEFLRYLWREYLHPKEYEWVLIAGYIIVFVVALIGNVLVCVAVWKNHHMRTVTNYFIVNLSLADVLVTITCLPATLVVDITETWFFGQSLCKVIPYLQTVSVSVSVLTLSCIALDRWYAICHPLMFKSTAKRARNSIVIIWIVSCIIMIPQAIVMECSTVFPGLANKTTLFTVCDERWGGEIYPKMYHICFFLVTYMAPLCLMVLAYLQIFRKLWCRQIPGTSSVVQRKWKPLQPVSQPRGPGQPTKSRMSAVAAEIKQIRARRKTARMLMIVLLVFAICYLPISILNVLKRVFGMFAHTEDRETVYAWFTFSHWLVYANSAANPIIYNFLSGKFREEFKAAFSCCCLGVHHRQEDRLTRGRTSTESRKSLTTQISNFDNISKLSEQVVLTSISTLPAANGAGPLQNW
Experiment: Measurement of orexin type 2 receptor agonist activity (FLIPR calcium fluorescence)
Type: cell-based
Settings: CHO cells expressing hOX2R, FLIPR calcium fluorescence; for EC50: read-out: hOx2 pEC50 (converted); for Emax: CHO, read-out: hOx2 Emax (%)
Description: The biological activity of the compounds of the present disclosure may be determined in cells stably expressing either orexin type 2 or orexin type 1 receptor. […] The agonist activity of a compound of the present disclosure may be determined by fluorescence value.
Stable cell line generation.
Measurement of orexin type 2 receptor agonist activity. […] As used herein, E. indicates the value at 10 μM concentration when orexin A is converted to a full agonist (maximum value of agonist activity. 100%).

| Structure (SMILES) | EC50 | Emax | hOx2 Emax (%) | hOx2 pEC50 |
| --- | --- | --- | --- | --- |
| CCS(=O)(=O)N[C@@H]1[C@H](Cc2cccc(-c3ccccc3)c2F)N(C(=O)[C@H](O)COC)CC12CC2 [Compound 344, N-((6S,7S)-6-((2-fluoro-[1,1′-biphenyl]-3-yl)methyl)-5-((R)-2-hydroxy-3-methoxypropanoyl)-5-azaspiro[2.4]heptan-7-yl)ethanesulfonamide] | 1 to 10 nM | 90 to 100% |  |  |
| CC(F)C(=O)N1CC2(CC2)C(NS(C)(=O)=O)C1Cc1cccc(-c2ccccc2)c1 (single isomer, unassigned) [Compound 2, N-(6-([1,1′-biphenyl]-3-ylmethyl)-5-(2-fluoropropanoyl)-5-azaspiro[2.4]heptan-7-yl)methanesulfonamide] | 100 to 1000 nM |  | C (Emax ranging between 70 and 80) |  |
| O=C([C@H](O)CF)N1CC2(CC2)[C@H](NS(=O)(=O)C(F)F)[C@@H]1Cc1cccc(-c2ccccc2)c1F [Compound 174, 1,1-difluoro-N-((6S,7S)-5-((S)-3-fluoro-2-hydroxypropanoyl)-6-((2-fluoro-[1,1′-biphenyl]-3-yl)methyl)-5-azaspiro[2.4]heptan-7-yl)methanesulfonamide] | 1 to 10 nM | 90 to 100% |  |  |
| COC[C@@H](C)NC(=O)N1CC2(CC2)[C@H](NS(C)(=O)=O)[C@@H]1Cc1cccc(-c2ccccc2)c1F [Compound 325, (6S,7S)-6-((2-fluoro-[1,1′-biphenyl]-3-yl)methyl)-N-((R)-1-methoxypropan-2-yl)-7-(methylsulfonamido)-5-azaspiro[2.4]heptane-5-carboxamide] | 1 to 10 nM | 90 to 100% |  |  |
| O=C([C@H]1C[C@H](F)C1)N1CC2(CC2)[C@H](NS(=O)(=O)CF)[C@@H]1Cc1cccc(-c2ccccc2)c1F [Compound 188] | 1 to 10 nM | 90 to 100% |  |  |
| CS(=O)(=O)N[C@@H]1[C@H](Cc2cccc(-c3ccccc3)c2)N(C(=O)C2(C#N)CCC2)CC12CC2 (racemic) [Compound 295] | 10 to 100 nM | 90 to 100% |  |  |
| CS(=O)(=O)N[C@H]1[C@@H](Cc2cccc(-c3cc(F)cc(F)c3)c2F)N(C(=O)N2CCC2)CC12CC2 [Compound 31, N-((6R,7R)-5-(azetidine-1-carbonyl)-6-((2,3′,5′-trifluoro-[1,1′-biphenyl]-3-yl)methyl)-5-azaspiro[2.4]heptan-7-yl)methanesulfonamide] | 10 to 100 nM | 90 to 100% |  |  |
| COc1c(C[C@H]2[C@@H](NS(C)(=O)=O)C3(CC3)CN2C(=O)C2CC(F)C2)cccc1-c1ccccc1 (stereo partly drawn) [Compound 340, N-((6S,7S)-5-(3-fluorocyclobutane-1-carbonyl)-6-((2-methoxy-[1,1′-biphenyl]-3-yl)methyl)-5-azaspiro[2.4]heptan-7-yl)methanesulfonamide] |  |  | D (Emax ranging between 60 and 70) | *** (pEC50 ranging between 7.0 and 8.0) |
| CN(C)S(=O)(=O)NC1C(Cc2cccc(-c3ccccc3)c2F)N(C(=O)C2CCC2)CC12CC2 (racemic) [Compound 92, N-(5-(cyclobutanecarbonyl)-6-((2-fluoro-[1,1′-biphenyl]-3-yl)methyl)-5-azaspiro[2.4]heptan-7-yl)-N,N-dimethylsulfuric diamide] | 1 to 10 nM | 90 to 100% |  |  |
| C[C@H](F)C(=O)N1CC2(CC2)[C@H](NS(C)(=O)=O)[C@@H]1Cc1cccc(-c2ccccc2)c1F [Compound 346, N-((6S,7S)-6-((2-fluoro-[1,1′-biphenyl]-3-yl)methyl)-5-((S)-2-fluoropropanoyl)-5-azaspiro[2.4]heptan-7-yl)methanesulfonamide] | 1 to 10 nM | 90 to 100% |  |  |
| O=C(NCC(F)F)N1CC2(CC2)[C@H](NS(=O)(=O)CF)[C@@H]1Cc1cccc(-c2ccccc2)c1F [Compound 187, (6S,7S)-N-(2,2-difluoroethyl)-6-((2-fluoro-[1,1′-biphenyl]-3-yl)methyl)-7-((fluoromethyl)sulfonamido)-5-azaspiro[2.4]heptane-5-carboxamide] | 0.0794 to 1 nM | 90 to 100% |  |  |
| O=C([C@H]1CCO1)N1CC2(CC2)[C@H](NS(=O)(=O)C2CC2)[C@@H]1Cc1cc(F)cc(-c2ccccc2)c1F [Compound 349, N-((6S,7S)-6-((2,5-difluoro-[1,1′-biphenyl]-3-yl)methyl)-5-((R)-oxetane-2-carbonyl)-5-azaspiro[2.4]heptan-7-yl)cyclopropanesulfonamide] | 1 to 10 nM | 90 to 100% |  |  |
| C[C@H](CF)NC(=O)N1CC2(CC2)[C@H](NS(C)(=O)=O)[C@@H]1Cc1cccc(-c2ccccc2)c1F [Compound 101, (6S,7S)-6-((2-fluoro-[1,1′-biphenyl]-3-yl)methyl)-N-((R)-1-fluoropropan-2-yl)-7-(methylsulfonamido)-5-azaspiro[2.4]heptane-5-carboxamide] | 0.0794 to 1 nM | 90 to 100% |  |  |
| CS(=O)(=O)NC1C(Cc2cccc(-c3ccccc3)c2F)N(C(=O)N2CC(F)C2)CC12CC2 (racemic) [Compound 45, N-(6-((2-fluoro-[1,1′-biphenyl]-3-yl)methyl)-5-(3-fluoroazetidine-1-carbonyl)-5-azaspiro[2.4]heptan-7-yl)methanesulfonamide] | 1 to 10 nM | 90 to 100% |  |  |
| CN(CCC#N)C(=O)N1CC2(CC2)[C@H](NS(C)(=O)=O)[C@@H]1Cc1cccc(-c2ccccc2)c1F [Compound 327, (6S,7S)-N-(2-cyanoethyl)-6-((2-fluoro-[1,1′-biphenyl]-3-yl)methyl)-N-methyl-7-(methylsulfonamido)-5-azaspiro[2.4]heptane-5-carboxamide] | 1 to 10 nM | 90 to 100% |  |  |
| CNS(=O)(=O)N[C@@H]1[C@H](Cc2cccc(-c3ccccc3)c2)N(C(=O)[C@H]2CCO2)CC12CC2 [Compound 71] | 1 to 10 nM | 90 to 100% |  |  |
| CC(C)(O)C(=O)N1CC2(CC2)[C@H](NS(C)(=O)=O)[C@@H]1Cc1cccc(-c2cc(F)cc(F)c2)c1F [Compound 34, N-((6S,7S)-5-(2-hydroxy-2-methylpropanoyl)-6-((2,3′,5′-trifluoro-[1,1′-biphenyl]-3-yl)methyl)-5-azaspiro[2.4]heptan-7-yl)methanesulfonamide] | 1 to 10 nM | 90 to 100% |  |  |
| CS(=O)(=O)NC1C(Cc2cccc(-c3ccccc3)c2)N(C(=O)N2CC(F)C2)CC12CC2 (racemic) [Compound 11, N-(6-([1,1′-biphenyl]-3-ylmethyl)-5-(3-fluoroazetidine-1-carbonyl)-5-azaspiro[2.4]heptan-7-yl)methanesulfonamide] | 10 to 100 nM | 90 to 100% |  |  |
| CCS(=O)(=O)N[C@@H]1[C@H](Cc2cccc(-c3ccccc3)c2F)N(C(=O)[C@H]2CCO2)CC12CC2 [Compound 53, N-((6S,7S)-6-((2-fluoro-[1,1′-biphenyl]-3-yl)methyl)-5-((R)-oxetane-2-carbonyl)-5-azaspiro[2.4]heptan-7-yl)ethanesulfonamide] | 1 to 10 nM | 90 to 100% |  |  |
| CS(=O)(=O)N[C@@H]1[C@H](Cc2cccc(-c3ccccc3)c2F)N(C(=O)NC2CC(F)C2)CC12CC2 (stereo partly drawn) [Compound 315, (6S,7S)-6-((2-fluoro-[1,1′-biphenyl]-3-yl)methyl)-N-(3-fluorocyclobutyl)-7-(methylsulfonamido)-5-azaspiro[2.4]heptane-5-carboxamide] | 10 to 100 nM | 80 to 90% |  |  |
